The results in this text go back to patent publication US8008074B2, “Compositions and methods for improving bone mass through modulation of receptors of PTH and fragments thereof” (The UAB Research Foundation, priority 2006, dated 2011).

For one assay, the target named is T1, LRP5 (Homo sapiens, UniProt O75197).
T1 construct: expressed in transfected cells; host or cells: HEK293
The experiment in a line: LRP5 PPPSP phosphorylation in HEK293 cells (Ab1490 Western blot). Type of assay: cell-based. Conditions: HEK293 cells transfected with HA-tagged LRP5; at 45 minutes; 5×10^−7 M PTH (1-84). As for the experimental part:
HEK293 cells transfected with HA-tagged LRP5 were treated with conditioned medium containing Wnt-3a (lane 1), control medium with 5×10^−7 M PTH (1-84) for the indicated time periods (lane 3-5), or without PTH treatment (lane 2). Phosphorylated LRP5 was detected by Western blotting of the anti-HA immunoprecipitates with Ab1490, which specifically recognizes phosphorylated PPPSP sites within LRP5/6. […] VSVG-tagged LRP6 was cotransfected into HEK 293 cells with HA-Axin and GSK3β, and the cells were treated with or without 10^−7 M PTH (1-84) for the indicated time periods. The LRP6-associated Axin was determined by Western blotting of the anti-VSVG immunoprecipitates with anti-HA antibody. […] The LRP6-associated Axin was determined by Western blotting of the anti-VSVG immunoprecipitates with anti-HA antibody. […] The association of axin with wild type and mutant proteins was determined by Western blotting of the anti-VSVG immunoprecipitates with anti-HA antibody. […] Then luciferase activities were determined.
UMR-106 cells were treated with either PTH or Wnt-3a. The cell lysates were immunoprecipitated for endogenous LRP6, and the precipitated immunocomplexes were detected by Western blotting with an antibody that specifically recognizes the phosphorylated PPPSP motifs (aa, 1490) (Tamai et al., 2004). […]

The test system of the next assay is LRP5/Axin binding. The experiment in a line: Axin-LRP5 binding immunoprecipitation. Type of assay: cell-based. Conditions: significantly induced at 30 minutes; data not shown. The text has this:
If the observation is true, then the phosphorylated PPPSP motif will serve as an Axin docking site.
GSK3β is involved in PTH-stimulated LRP6 phosphorylation at its PPPSP motifs. However, the phosphorylation of LRP5 by PTH was very strong and seems GSK3β-unrelated. Since LRP6N, the extracellular domain with transmembrane region, functions as dominant-negative, we examined whether it inhibits PTH-induced Axin binding with LRP5/6.

In a further assay the test system is MPK1, RANKL and OPG mRNA. The experiment in a line: Real-Time PCR of PTH target genes in bone tissue of injected rats. The format is in vivo, rat. Conditions: rats injected with PTH (PTH (1-34)). An excerpt: Immunohistochemical staining of representative sections with antibody against β-catenin at 10× objective and 40× objective counterstained with hematoxylin from either primary spongliosa subjacent to the epiphyseal growth plates or Spongiosa subjacent to diaphyseal hematopoietic bone marrow of different time points after PTH single injection in rats. […] Each value is the mean±SEM of determinations in three independent slides of each animal and three animals of each group. Panels B and C show graphs of the expression of MPK1 mRNA and the ratio of RANKL/OPG as quantified by real-time PCR in cavaria tissue from the same animals. […] Panel D is a graph showing the numbers of β-catenin-positive osteoblasts as a percent of total osteoblasts per field that were determined. […]
It has been reported that intermittent PTH treatment targeted proliferating cells in the primary spongiosa of young rat distal femur metaphysis, resulting in an increased number of osteoblasts (Oniya, 1995, Bone). […] Quantitation of MPK1, RANKL, OPG, and GAPDH with specific primers was performed using a DNA Engine Opticon continuous fluorescence detection system (MJ Research, Logan, Utah) with SYBR Green I as the method of detection. […] Briefly, quantitative PCR was performed in a total reaction volume of 20 μl per […]. […]

Another assay relates to TGFβ/Smad signaling. The assay is described as follows: TGFβ/Smad signaling after PTH pretreatment. Type of assay: cell-based. The protocol: Panel B is a graph showing the decrease in activity from the SBE-luciferase reporter in the presence of PTH and PTH1R.
It has been reported that TGFβ-induced endocytosis of TGFβ/TβRII is mediated by Sara endosome. The response of TβRII to PTH was analyzed to determine whether it is the same as to TGFβ. […] The observation was confirmed by TGFβ-induced interaction between Smad2 and Smad4.

T1 sequence (O75197 32-1615, species assumed): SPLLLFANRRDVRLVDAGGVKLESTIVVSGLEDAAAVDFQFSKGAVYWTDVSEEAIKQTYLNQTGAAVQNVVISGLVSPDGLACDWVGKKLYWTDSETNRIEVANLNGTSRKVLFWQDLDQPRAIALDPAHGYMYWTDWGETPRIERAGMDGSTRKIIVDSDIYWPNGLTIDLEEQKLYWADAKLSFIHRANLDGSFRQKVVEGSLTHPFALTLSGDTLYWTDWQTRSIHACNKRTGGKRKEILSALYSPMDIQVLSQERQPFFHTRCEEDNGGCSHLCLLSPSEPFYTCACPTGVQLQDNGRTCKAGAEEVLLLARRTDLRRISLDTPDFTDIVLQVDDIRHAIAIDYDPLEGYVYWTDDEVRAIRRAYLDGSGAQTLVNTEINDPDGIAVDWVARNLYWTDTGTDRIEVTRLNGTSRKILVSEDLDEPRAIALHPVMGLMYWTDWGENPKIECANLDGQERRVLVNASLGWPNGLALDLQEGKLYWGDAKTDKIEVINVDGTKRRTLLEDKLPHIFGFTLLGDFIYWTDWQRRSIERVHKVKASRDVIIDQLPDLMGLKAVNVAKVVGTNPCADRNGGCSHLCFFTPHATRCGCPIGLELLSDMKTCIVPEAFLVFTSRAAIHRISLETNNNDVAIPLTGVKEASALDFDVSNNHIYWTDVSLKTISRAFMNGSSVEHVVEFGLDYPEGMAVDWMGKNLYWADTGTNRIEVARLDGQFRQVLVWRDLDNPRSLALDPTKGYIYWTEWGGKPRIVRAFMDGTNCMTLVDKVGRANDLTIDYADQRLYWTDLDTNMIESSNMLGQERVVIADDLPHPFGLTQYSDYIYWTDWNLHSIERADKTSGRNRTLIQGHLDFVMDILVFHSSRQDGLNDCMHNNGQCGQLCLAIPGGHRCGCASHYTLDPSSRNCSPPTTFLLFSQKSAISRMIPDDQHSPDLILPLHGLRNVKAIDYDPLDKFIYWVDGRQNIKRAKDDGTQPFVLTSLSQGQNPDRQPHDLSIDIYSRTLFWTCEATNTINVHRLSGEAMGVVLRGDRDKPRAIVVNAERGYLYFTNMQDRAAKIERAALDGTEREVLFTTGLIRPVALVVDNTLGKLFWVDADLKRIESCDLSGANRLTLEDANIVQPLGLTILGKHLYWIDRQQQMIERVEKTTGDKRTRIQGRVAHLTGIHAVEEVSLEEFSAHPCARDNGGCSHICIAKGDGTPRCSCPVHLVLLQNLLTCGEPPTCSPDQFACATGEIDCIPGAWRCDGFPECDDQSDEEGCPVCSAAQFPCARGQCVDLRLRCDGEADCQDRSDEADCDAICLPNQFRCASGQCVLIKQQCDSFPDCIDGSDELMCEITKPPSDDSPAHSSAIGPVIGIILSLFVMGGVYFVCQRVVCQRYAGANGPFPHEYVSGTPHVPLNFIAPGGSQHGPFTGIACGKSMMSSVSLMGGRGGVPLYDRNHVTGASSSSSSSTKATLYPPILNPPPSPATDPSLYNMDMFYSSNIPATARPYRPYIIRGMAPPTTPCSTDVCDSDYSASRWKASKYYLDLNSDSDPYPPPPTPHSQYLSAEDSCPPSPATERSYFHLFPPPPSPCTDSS

Regarding “PTH: Parathyroid hormone ligand, form not stated at the place; figure legends give PTH (1-84) or PTH (1-34)”, the “LRP5 phosphorylation (PPPSP)” value in the assay with LRP5 was “dramatically stimulated LRP5 phosphorylation”. In the assay with LRP5/Axin binding, the “binding of Axin to LRP5” value was “induced binding of Axin to LRP5”. In addition, in the assay with MPK1, RANKL and OPG mRNA, the “MPK1 mRNA expression” value is “stimulated MPK1 mRNA expression” and the “ratio of RANKL/OPG” value is “increased”. In addition, in the assay on TGFβ/Smad signaling (C2C12 cells pretreated with PTH), the “phosphorylation of Smad2 by TGFβ after PTH pretreatment” value is “largely inhibited”. Further, in the assay with TGFβ/Smad signaling (cells expressing PTH1R), the “inhibition by PTH1R of TGFβ activation of SBE luciferase reporter” value is reported as “enhanced the inhibition”. Moreover, the “TGFβ-induced interaction between Smad2 and Smad4” value in the assay with TGFβ/Smad signaling (pretreatment with PTH) is on record as “inhibits the interaction”.
